Data as given in patent US20110038940A1, “PULVERULENT COMPOSITION AND A PROCESS FOR PREPARING THE SAME” (INNOV'IA, priority 2008, published 2011).
Converted amounts (≈) assume the structure as drawn.

Tests used:
[1] = Sedimentation of dispersed composition in water measured by turbidity (back scattering laser, Turbiscan MA 1000); type: physicochemical; settings: 10 g in 90 ml distilled water at 20° C., bottom of tube
Protocol: 10 g of the water-dispersible pulverulent composition A is dispersed in 90 ml of distilled water at 20° C. in a tube. The sedimentation rate is measured by turbidity using a back scattering laser device (Turbiscan MA 1000) along the tube. The back light is measured along the tube at different time so that evolution of the sedimentation can be followed along time. The sedimentation is measured at the bottom of the tube.

[2] = Natural sedimentation in conical graduated tube, 15% dispersion in distilled water; sediment volume and dry solids; type: physicochemical; settings: 15% (net w/total w) in distilled water at 20° C., 10 ml
Protocol: The water-dispersible pulverulent composition A is dispersed in distilled water at 20° C. at a concentration of 15% (net w/total w) in a conical graduated sedimentation tube (total volume of the solution is 10 ml). The quantity of the sediment (in ml) is measured along time (Table 3).
The encapsulation efficiency can also be assessed by measuring the hydration of the granules of the water-dispersible pulverulent composition of the invention. This has been evaluated by measuring the dry solid content of the sediment (% dry matter) (Table 3).

[3] = Sedimentation test (stability of the dispersion): sediment size and dry content after 24 hours; type: physicochemical; settings: 1.5 g in 8.5 ml demineralised water, 2 min vortex; for Dry content of the sediment: sediment after 24 hours
Protocol: The stability is measured by the sedimentation test as follow: • 10 ml of solution is prepared using 8.5 ml of demineralised water and 1.5 g of the pulverulent composition A or B in special sedimentation tubes graduated from 0.1 ml up to 10 ml; • complete dispersion is assumed by a 2 min vortex mixing; • sedimentation is controlled at defined times to evaluate the amount of sediment; • quality of the dispersion is evaluated by measuring: • the dispersion of the solids all over the aqueous solution by measuring the height of the sediments of the hydrated particles. For the same amount of pulverulent composition, the higher the sediments, the more dispersed the particles in the aqueous solution • the dry content of the sediment after 24 hours.

[4] = water; cited from earlier work

For `Cc1cc2nc3c(=O)[nH]c(=O)nc-3n(C[C@H](O)[C@H](O)[C@H](O)CO)c2cc1C` [Riboflavin], the “% Back light after 2 min dispersion” value ([1]; 2 min) was 2%, the “% Back light after 6 min dispersion” value ([1]; 6 min) was 3.1% and the “Sediment volume after 1 Hour dispersion” value ([2]; 1 hour) was 0.6 mL. For the same molecule, the “Dry solids content of the sediment after 24 Hour sedimentation” value ([2]; 24 hours) was 39.3%, the “Sediment after 24 H” value ([3]; 24 h) was 1.5 mL and the “Dry content of the sediment” value ([3]; listed as Riboflavin (raw material)) was 39.4%. The “Dry content of the sediment” value ([3]; listed as Riboflavin (raw material) (control)) was 39.4%, the “Dry content of the sediment” value ([3]; listed as Riboflavine: Raw material (control)) was 39.4% and the solubility [4] was 70 µg/mL (≈ 186 µM).
